Test: Further solubility experiments (remaining in solution after dilution)
Type: physicochemical
Method: After determining that heterocycles and hydroxy or amine substituted aromatics dissolve tryptanthrin compounds, the following was conducted to determine if once dissolved the compounds would remain in solution in aqueous environments. To this end 10 mg of DN49 was dissolved in 1.0 ml of piperidine to obtain a green solution. This solution was then added dropwise to 2.0 ml of deionized water without precipitation of the compound. The solution was placed in a chemical fume hood so that the piperidine could evaporate slowly. After a week, the piperidine had evaporated and the resulting solution had no solid in the aqueous environment and had turned from the green color of the piperidne complex back to the yellow color of uncomplexed DN49 solutions.
A […] green stock solution of DN49 in 1-(3-aminopropyl)imidazole was formed. To 1.95 ml of a given solvent listed below, 50 microliter of the stock solution was added and the resulting solution was vortexed for a second to ensure rapid mixing; this provided a 5 mM solution. The results by solvent follow: • 1. Chloroform: Solution goes from green to yellow in less than 30 minutes; no solid after more than three months at ambient conditions. • 2. Methanol: Solution goes from green to yellow between 5 and 12 hours after mixing; no solid. • 3. 1,4-dioxane: Solution goes from green to yellow in approximately 1 hour; no solid. • 4. Deionized water: Solution goes from […] over the course of several days; no solid. • 5. Acetonitrile: Solution goes from green to yellow in about 3 hours; no solid. • 6.

## O=C1c2ccccc2-n2c1nc1ncccc1c2=O [DN49]
10 mg in 1.0 ml piperidine added to 2.0 ml deionized water, after a week
  solid in aqueous solution after evaporation of piperidine: no solid
50 microliter 200 mM stock in 1-(3-aminopropyl)imidazole into 1.95 ml Chloroform, more than three months at ambient conditions
  solid formation from 5 mM solution: no solid
Stock in 1-(3-aminopropyl)imidazole into 0.1 M aqueous citric acid
  solid formation from 5 mM solution: green solid fall out of solution after about 12 hours
Stock in 1-(3-aminopropyl)imidazole into 1,4-dioxane
  solid formation from 5 mM solution: no solid
Stock in 1-(3-aminopropyl)imidazole into 10% aqueous sodium bicarbonate
  solid formation from 5 mM solution: green precipitate after 8 hours
Stock in 1-(3-aminopropyl)imidazole into Acetonitrile
  solid formation from 5 mM solution: no solid
Stock in 1-(3-aminopropyl)imidazole into Deionized water
  solid formation from 5 mM solution: no solid
Stock in 1-(3-aminopropyl)imidazole into Methanol
  solid formation from 5 mM solution: no solid

Source: patent US7259167B2, “Antimalarial and antiproliferative pharmacophore models, novel tryptanthrin compounds having increased solubility, and methods of making and using thereof” (United States of America as Represented by the Secretary of …, priority 2002, dated 2007)
